In ChEMBL document CHEMBL5512664, “Emerging and Re-emerging Warheads for Targeted Covalent Inhibitors: An Update” (J Med Chem, 2024):

Columns and labels:
[1] = GSH reactivity in PBS buffer at pH 7.4 assessed as half life; assay type: ADME
[2] = target: T1, Replicase polyprotein 1ab (Severe acute respiratory syndrome coronavirus 2, UniProt P0DTD1); assay: Inhibition of SARS-CoV-2 papain-like protease (PLpro) using fluorogenic peptide substrate by fluorescent assay
[3] = Reactivity rate at cyclic sulfonamide assessed as rate constant by CSA sulfenic-acid model; assay type: physicochemical
[4] = Chemical stability of the compound in pH 7.4 buffer assessed as half life; assay type: physicochemical
Carbonic anhydrase 2 [5] = target: T2, Carbonic anhydrase 2 (Homo sapiens, UniProt P00918); assay: Rate of protein modification at carbonic anhydrase II (unknown origin) fragment assessed as inhibition constant
Carbonic anhydrase 2 [6] = target: T2, Carbonic anhydrase 2; assay: Binding affinity to carbonic anhydrase II (unknown origin) fragment assessed as rate of protein modification by measuring inactivation rate constant (Kinact)
[7] = Reactivity of SuTEx assessed as aryl-AG modifications by measuring half life by HLPC analysis; assay type: physicochemical
[8] = GSH reactivity in PBS buffer at pH 8 assessed as second-order reaction rate constants upto 200 uM by DTNB assay; assay type: ADME; settings: pH 8, 200 µM
[9] = Cysteine-reactive in peptide assessed as half life using fluorogenic monochlorobimane/zinc complex by measuring fluorescence intensity; assay type: ADME; settings: cysteine-containing peptide
[10] = Reactivity of SuTEx assessed as aryl-LG modifications by measuring half life by HLPC analysis; assay type: physicochemical
[11] = target: T1, Replicase polyprotein 1ab; assay: Binding affinity to SARS-CoV-2 cysteine protease-Mpro assessed as inhibition constant
[12] = target: Replicase polyprotein 1ab (Severe acute respiratory syndrome coronavirus 2) (UniProt P0DTD1); assay: Binding affinity to SARS-CoV-2 cysteine protease-Mpro assessed as inactivation rate constant (Kinact)
Homo sapiens [13] = species: Homo sapiens; assay: Inhibition of wild type Hsp90 (unknown origin) assessed as inactivation rate constant (Kinact)
Homo sapiens [14] = species: Homo sapiens; assay: Binding affinity to wild type Hsp90 (unknown origin) assessed as rate of modification half life
[15] = target: T3, Tyrosine-protein kinase ABL1 (Homo sapiens, UniProt P00519); assay: Inhibition of recombinant ABL kinase (unknown origin) assessed as inactivation rate constant (Kinact)
T3 sequence (P00519 whole entry): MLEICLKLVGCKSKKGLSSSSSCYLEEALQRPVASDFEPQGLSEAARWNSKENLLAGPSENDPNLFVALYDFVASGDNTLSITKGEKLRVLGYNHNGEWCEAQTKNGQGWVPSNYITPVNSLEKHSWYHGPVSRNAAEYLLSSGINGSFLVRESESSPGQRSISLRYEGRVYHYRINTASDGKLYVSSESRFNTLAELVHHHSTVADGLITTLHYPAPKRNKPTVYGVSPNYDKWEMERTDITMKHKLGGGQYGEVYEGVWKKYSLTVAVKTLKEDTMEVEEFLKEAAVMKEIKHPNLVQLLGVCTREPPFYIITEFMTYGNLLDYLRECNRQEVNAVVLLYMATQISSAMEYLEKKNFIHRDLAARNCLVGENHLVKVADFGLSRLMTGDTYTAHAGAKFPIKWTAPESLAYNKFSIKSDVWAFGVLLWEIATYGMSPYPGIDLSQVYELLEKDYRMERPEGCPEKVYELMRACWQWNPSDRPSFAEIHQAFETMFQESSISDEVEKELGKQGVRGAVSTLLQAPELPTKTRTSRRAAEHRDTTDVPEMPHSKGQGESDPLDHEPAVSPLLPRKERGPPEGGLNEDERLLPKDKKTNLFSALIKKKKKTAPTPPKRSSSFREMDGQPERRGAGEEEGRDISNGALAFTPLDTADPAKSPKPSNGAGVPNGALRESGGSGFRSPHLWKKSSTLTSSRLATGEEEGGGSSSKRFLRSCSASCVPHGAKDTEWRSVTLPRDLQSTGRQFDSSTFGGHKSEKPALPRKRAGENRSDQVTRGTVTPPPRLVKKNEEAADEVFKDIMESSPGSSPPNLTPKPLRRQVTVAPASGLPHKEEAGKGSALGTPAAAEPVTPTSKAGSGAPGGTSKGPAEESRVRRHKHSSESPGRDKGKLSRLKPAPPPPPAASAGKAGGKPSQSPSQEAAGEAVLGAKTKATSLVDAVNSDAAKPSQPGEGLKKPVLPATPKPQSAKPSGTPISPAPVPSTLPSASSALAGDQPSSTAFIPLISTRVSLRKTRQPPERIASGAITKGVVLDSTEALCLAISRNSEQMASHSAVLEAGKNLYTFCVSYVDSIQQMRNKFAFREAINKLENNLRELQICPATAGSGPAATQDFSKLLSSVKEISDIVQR

[16] = target: T3, Tyrosine-protein kinase ABL1; assay: Inhibition of recombinant ABL kinase (unknown origin) assessed as inhibition constant
[17] = Cytotoxicity against African green monkey Vero E6 cells; assay type: toxicity, cell-based, Vero C1008; settings: chlorocebus sabaeus
[18] = target: Tyrosine-protein kinase BTK (Homo sapiens, UniProt Q06187); settings: A-431, dose 1.0 µM
Chain of Tyrosine-protein kinase BTK (Q06187 whole entry): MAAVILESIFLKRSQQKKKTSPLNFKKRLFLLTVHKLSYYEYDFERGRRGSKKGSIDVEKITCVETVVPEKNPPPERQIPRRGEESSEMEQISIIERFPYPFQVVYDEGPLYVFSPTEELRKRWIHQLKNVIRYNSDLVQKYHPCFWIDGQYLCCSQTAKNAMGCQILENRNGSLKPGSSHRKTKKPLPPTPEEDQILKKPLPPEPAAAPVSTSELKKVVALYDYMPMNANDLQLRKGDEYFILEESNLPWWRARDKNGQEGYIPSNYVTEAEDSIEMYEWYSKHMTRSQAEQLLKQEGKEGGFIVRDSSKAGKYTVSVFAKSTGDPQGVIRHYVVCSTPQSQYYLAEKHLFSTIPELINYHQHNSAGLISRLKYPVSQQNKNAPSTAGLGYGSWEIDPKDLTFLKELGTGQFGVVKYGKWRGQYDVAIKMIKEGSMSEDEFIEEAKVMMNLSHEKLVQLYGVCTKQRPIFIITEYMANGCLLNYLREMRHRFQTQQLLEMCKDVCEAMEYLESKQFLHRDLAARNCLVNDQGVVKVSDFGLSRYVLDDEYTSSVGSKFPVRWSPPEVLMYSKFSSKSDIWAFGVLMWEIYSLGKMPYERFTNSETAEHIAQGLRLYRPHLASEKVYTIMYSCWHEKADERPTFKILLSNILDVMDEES

[19] = target: NAD-dependent protein deacylase sirtuin-5, mitochondrial (Homo sapiens) (UniProt Q9NXA8); assay: Inhibition of SIRT5 (unknown origin) assessed as reaction rate Kinact/Ki ratio
Chain of NAD-dependent protein deacylase sirtuin-5, mitochondrial (Homo sapiens) (Q9NXA8 37-310 limits assumed): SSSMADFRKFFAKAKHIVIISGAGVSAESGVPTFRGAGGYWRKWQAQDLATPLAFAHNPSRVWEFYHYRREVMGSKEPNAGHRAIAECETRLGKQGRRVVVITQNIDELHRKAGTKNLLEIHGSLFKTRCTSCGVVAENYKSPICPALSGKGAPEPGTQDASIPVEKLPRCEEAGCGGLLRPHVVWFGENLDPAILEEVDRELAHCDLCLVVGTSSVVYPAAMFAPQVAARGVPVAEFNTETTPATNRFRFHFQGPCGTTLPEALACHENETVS

[20] = target: NAD-dependent protein deacylase sirtuin-5, mitochondrial (Homo sapiens) (UniProt Q9NXA8); assay: Inhibition of SIRT5 (unknown origin) assessed as inactivation rate constant (Kinact)
[21] = GSH reactivity in PBS buffer at pH 8 at 14 degC assessed as half life upto 200 uM; assay type: ADME
[22] = target: T3, Tyrosine-protein kinase ABL1; assay: Inhibition of wild type N-terminal His tagged ABL kinase (unknown origin) using fluorescence-labelled substrate by off-chip mobility shift assay
[23] = target: E3 ubiquitin-protein ligase Mdm2 (Homo sapiens) (UniProt Q00987); assay: Binding affinity to human HDM2 assessed as second-order rate constant (Kinact/Kd) ratio
Chain of E3 ubiquitin-protein ligase Mdm2 (Homo sapiens) (Q00987 whole entry, looked up): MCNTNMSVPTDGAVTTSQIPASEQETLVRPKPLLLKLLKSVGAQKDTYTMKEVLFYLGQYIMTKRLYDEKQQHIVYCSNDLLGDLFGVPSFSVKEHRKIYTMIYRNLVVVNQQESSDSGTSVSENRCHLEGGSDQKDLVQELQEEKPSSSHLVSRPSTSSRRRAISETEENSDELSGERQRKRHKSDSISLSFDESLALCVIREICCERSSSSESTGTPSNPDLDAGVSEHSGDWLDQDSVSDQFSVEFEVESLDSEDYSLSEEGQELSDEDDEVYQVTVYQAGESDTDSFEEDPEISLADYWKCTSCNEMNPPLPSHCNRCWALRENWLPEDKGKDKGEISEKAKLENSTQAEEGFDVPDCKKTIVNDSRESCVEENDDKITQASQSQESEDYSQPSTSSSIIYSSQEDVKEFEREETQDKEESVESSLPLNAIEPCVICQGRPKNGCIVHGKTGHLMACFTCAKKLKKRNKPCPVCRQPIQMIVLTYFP

[24] = target: E3 ubiquitin-protein ligase Mdm2 (Homo sapiens) (UniProt Q00987); assay: Binding affinity to human HDM2 assessed as rate constant of covalent modification (Kinact)

## CCSc1nc2sc3c(c2c(=O)n1CC)CCc1ccccc1-3
[1]
  half-life: 0.683 h
[2]
  IC50: 4.9 µM

## NC(=O)C(F)Br (configuration not stated)
[1]
  half-life: 0.15 h

## NC(=O)C(Cl)Br (configuration not stated)
[1]
  half-life: < 1.67 h

## C#CCCCC1CCC(=O)CC1=O (configuration not stated)
[3]
  K: 10 M⁻¹ s⁻¹

## CC#CC1=Nc2ccccc2C(C)(C)O1
[1]
  half-life: 1.37 h
[4]
  half-life: > 167 h

## CC(NC(=O)c1ccc(S(=O)(=O)F)cc1)c1cccc(S(N)(=O)=O)c1 (configuration not stated)
Carbonic anhydrase 2 [5]
  Ki: 33 µM
Carbonic anhydrase 2 [6]
  Kinact: 0.45 10^-5/s

## COc1ccc(-c2ncn(S(=O)(=O)c3ccc(-c4ccccc4)cc3)n2)cc1
[7]
  half-life: 0.288 h

## C#CCOCCOCCOc1cccc(N2CCN(C(=O)CF)CC2)c1
[1]
  half-life: > 167 h

## O=C(CCl)NCc1ccccc1
[8]
  K: 0.08 M⁻¹ s⁻¹

## NC(=O)C(Br)Br
[1]
  half-life: < 1.67 h

## C#CCCC(=O)C(SC[C@H](NC(=O)OCc1ccccc1)C(=O)N[C@H](C(=O)OC)C(C)C)[P+](c1ccccc1)(c1ccccc1)c1ccccc1 (some centres not stated)
[3]
  K: 15000 M⁻¹ s⁻¹

## CN(C)C/C=C/C(N)=O
[9]
  half-life: 0.51 h

## CC(=O)N(C)c1ccccc1
[1]
  half-life: 0.333 h

## NS(=O)(=O)c1cccc(CNC(=O)Cc2ccc(S(=O)(=O)F)cc2)c1
Carbonic anhydrase 2 [5]
  Ki: < 5 µM
Carbonic anhydrase 2 [6]
  Kinact: 0.73 10^-5/s

## O=C(COS(=O)(=O)Nc1ccc(Br)cc1)NCc1ccccc1
[8]
  K: 0.003 M⁻¹ s⁻¹

## CC(NC(=O)Cc1ccc(S(=O)(=O)F)cc1)c1cccc(S(N)(=O)=O)c1 (configuration not stated)
Carbonic anhydrase 2 [5]
  Ki: 22 µM
Carbonic anhydrase 2 [6]
  Kinact: 0.97 10^-5/s

## COc1ccc(-c2ncn(S(=O)(=O)c3ccc(F)cc3)n2)cc1
[10]
  half-life: 0.237 h

## O=C(NCCc1cccc(F)c1)[C@H](c1cncnc1)N(C(=O)[C@H](F)Cl)c1ccc(S(F)(F)(F)(F)F)cc1
[11]
  Ki: 64.7 µM
[12]
  Kinact: 4.3 10^-3/s

## COc1cc(OC)cc(C(=O)C23CC2C3)c1 (configuration not stated)
[1]
  half-life: 32.7 h

## Nc1ncnc2c1ncn2[C@@H]1O[C@H](CN(CC[C@H](N)C(=O)O)S(=O)(=O)c2ccc(Cl)c([N+](=O)[O-])c2)[C@@H](O)[C@H]1O
[1]
  half-life: < 0.0333 h

## CCCSc1nc2sc3c(c2c(=O)n1CC)CCc1ccccc1-3
[1]
  half-life: 0.683 h

## NS(=O)(=O)c1cccc(CNC(=O)c2ccc(S(=O)(=O)F)cc2)c1
Carbonic anhydrase 2 [5]
  Ki: < 5 µM
Carbonic anhydrase 2 [6]
  Kinact: 12 10^-5/s

## NS(=O)(=O)c1ccc(CCNC(=O)c2cccc(S(=O)(=O)F)c2)cc1
Carbonic anhydrase 2 [5]
  Ki: < 5 µM
Carbonic anhydrase 2 [6]
  Kinact: 0.51 10^-5/s

## NS(=O)(=O)c1ccc(CCNC(=O)Cc2ccc(S(=O)(=O)F)cc2)cc1
Carbonic anhydrase 2 [5]
  Ki: < 5 µM
Carbonic anhydrase 2 [6]
  Kinact: 0.36 10^-5/s

## CC(NS(=O)(=O)c1cccc(S(=O)(=O)F)c1)c1cccc(S(N)(=O)=O)c1 (configuration not stated)
Carbonic anhydrase 2 [5]
  Ki: 12 µM
Carbonic anhydrase 2 [6]
  Kinact: 3.9 10^-5/s

## Nc1ncnc2c1nc(Sc1cc3c(cc1I)OCO3)n2C[C@H]1CCCN(Cc2cccc(S(=O)(=O)F)c2)C1
Homo sapiens [13]
  Kinact: 2.17 10^-3/s
Homo sapiens [14]
  T1/2: 0.0833 h

## COc1ccc(-c2ncn(S(=O)(=O)c3cccnc3)n2)cc1
[7]
  half-life: 0.0267 h

## C#Cc1cc(OC)c(-c2ccc3nc(NC(=O)NCO)sc3c2)cc1C=O
[15]
  Kinact: 1.27 10^-3/s
[16]
  Ki: 0.013 µM

## C#CCOCCOCCOc1cccc(N2CCN(C(=O)C(F)F)CC2)c1
[1]
  half-life: 129 h

## C#CCOCCOCCOc1cccc(N2CCN(C(=O)C(F)(F)Br)CC2)c1
[1]
  half-life: 33.4 h

## CC#CC1=Nc2ccccc2C(C)(C)N1
[1]
  half-life: 0.025 h
[4]
  half-life: > 167 h

## COc1ccc(-c2ncn(S(=O)(=O)C3CC3)n2)cc1
[7]
  half-life: > 6 h

## O=S(=O)(c1ccc(F)cc1)n1cnc(-c2ccc(Br)cc2)n1
[10]
  half-life: 0.11 h

## COc1ccc(-c2ncn(S(=O)(=O)c3ccc(OC)cc3)n2)cc1
[7]
  half-life: 3.04 h

## CC(NS(=O)(=O)c1ccc(S(=O)(=O)F)cc1)c1cccc(S(N)(=O)=O)c1 (configuration not stated)
Carbonic anhydrase 2 [5]
  Ki: < 5 µM
Carbonic anhydrase 2 [6]
  Kinact: 1.7 10^-5/s

## C=CC(=O)NCc1ccccc1
[8]
  K: 0.003 M⁻¹ s⁻¹

## O=C(NCCc1cccc(F)c1)[C@@H](c1cncnc1)N(C(=O)[C@@H](F)Cl)c1ccc(S(F)(F)(F)(F)F)cc1
[11]
  Ki: 53.6 µM
[12]
  Kin: 1.1 10^-3/s

## C[C@@H](NC(=O)[C@H](c1cccnc1)N(C(=O)C(Cl)Cl)c1ccc(-c2ccccc2)cc1)c1ccccc1
[17]
  CC50: > 100 µM

## CN(C)S(=O)(=O)OCC(=O)NCc1ccccc1
[8]
  K: 0.012 M⁻¹ s⁻¹

## C=CCSc1nc2sc3c(c2c(=O)n1CC)CCc1ccccc1-3
[1]
  half-life: 0.683 h
[2]
  IC50: 0.8 µM

## NC(=O)CCl
[1]
  half-life: < 1.67 h
[9]
  half-life: 0.04 h

## NS(=O)(=O)c1ccc(CCNS(=O)(=O)c2ccc(S(=O)(=O)F)cc2)cc1
Carbonic anhydrase 2 [5]
  Ki: < 5 µM
Carbonic anhydrase 2 [6]
  Kinact: 2.1 10^-5/s

## C#Cc1cccc(Oc2ccc(-c3nn(CCc4ccccc4N(C)C(=O)C45CC4C5)c4ncnc(N)c34)cc2)c1 (configuration not stated)
[1]
  half-life: 32.7 h
[18]
  V0: 9.7 10^-5/s

## C#CCNC(=O)c1ccc(S(=O)(=O)N[C@@H](CCCCNC(=O)c2cncc(OS(=O)(=O)F)c2)C(=O)N[C@@H](CCCNC(=N)N)C(=O)NC2CCC2)cc1
[19]
  Ratio: 2.9 M⁻¹ s⁻¹
[20]
  Kinact: 2.83 10^-4/s

## C#CCCCN1c2ccccc2C(=O)CS1(=O)=O
[3]
  K: 1700 M⁻¹ s⁻¹

## O=S(=O)(c1ccccc1)C12CC1C2 (configuration not stated)
[1]
  half-life: 11.8 h

## CC(NC(=O)c1cccc(S(=O)(=O)F)c1)c1cccc(S(N)(=O)=O)c1 (configuration not stated)
Carbonic anhydrase 2 [5]
  Ki: 53 µM
Carbonic anhydrase 2 [6]
  Kinact: 0.24 10^-5/s

## C#CCOCCOCCOc1cccc(N2CCN(C(=O)C(C)(F)Br)CC2)c1 (configuration not stated)
[1]
  half-life: > 167 h

## CN(C(=O)C12CC1C2)c1ccccc1 (configuration not stated)
[1]
  half-life: 32.7 h

## O=C(COS(=O)(=O)NCc1ccccc1)NCc1ccccc1
[21]
  half-life at up to 200 µM: ~12 h
[8]
  K: 0.02 M⁻¹ s⁻¹

## NS(=O)(=O)c1cccc(CNC(=O)c2cccc(S(=O)(=O)F)c2)c1
Carbonic anhydrase 2 [5]
  Ki: < 5 µM
Carbonic anhydrase 2 [6]
  Kinact: 21 10^-5/s

## Cc1ccc(S(=O)(=O)OCC(=O)NCc2ccccc2)cc1
[8]
  K: 0.161 M⁻¹ s⁻¹

## COc1cc(S(=O)(=O)F)ccc1-c1c[nH]c2ncc(-c3cncc(C(=O)N(C)C)c3)cc12
[22]
  IC50: 0.073 µM

## Nc1ncnc2c1ncn2[C@@H]1O[C@H](CN(CC[C@H](N)C(=O)O)S(=O)(=O)c2ccc(F)c([N+](=O)[O-])c2)[C@@H](O)[C@H]1O
[1]
  half-life: < 0.0333 h

## CNS(=O)(=O)OCC(=O)NCc1ccccc1
[21]
  half-life at up to 200 µM: ~5 h
[8]
  K: 0.029 M⁻¹ s⁻¹

## NS(=O)(=O)c1ccc(CCNC(=O)c2ccc(S(=O)(=O)F)cc2)cc1
Carbonic anhydrase 2 [5]
  Ki: < 5 µM
Carbonic anhydrase 2 [6]
  Kinact: 0.89 10^-5/s

## Nc1ncnc2c1nc(Sc1cc3c(cc1I)OCO3)n2C[C@@H]1CCCN(Cc2cccc(S(=O)(=O)F)c2)C1
Homo sapiens [13]
  Kinact: 6.67 10^-5/s
Homo sapiens [14]
  T1/2: 3.33 h

## O=C(NCCc1cccc(F)c1)[C@@H](c1cncnc1)N(C(=O)[C@H](F)Cl)c1ccc(S(F)(F)(F)(F)F)cc1
[11]
  Ki: 1.34 µM
[12]
  Kinact: 5.6 10^-3/s

## NC(=O)C(F)Cl (configuration not stated)
[1]
  half-life: 17 h
[9]
  half-life: 4.4 h

## O=C(COS(=O)(=O)Nc1ccccc1)NCc1ccccc1
[8]
  K: 0.009 M⁻¹ s⁻¹

## O=S(=O)(c1ccc(F)cc1)n1cnc(-c2ccccc2)n1
[23]
  Ratio: 8.4 10^2/M/s
[10]
  half-life: 0.108 h
[24]
  Kinact: 4.8 10^-4/s

## NS(=O)(=O)c1cccc(CNS(=O)(=O)c2ccc(S(=O)(=O)F)cc2)c1
Carbonic anhydrase 2 [5]
  Ki: < 5 µM
Carbonic anhydrase 2 [6]
  Kinact: 9.6 10^-5/s

## C#CCN(C)C(=O)c1cncc(-c2cnc3[nH]cc(-c4cc(C=O)c(C#C)cc4OC)c3c2)c1
[15]
  Kinact: 5.54 10^-3/s
[16]
  Ki: 3.2 µM
[22]
  IC50: 0.0028 µM

## CS(=O)(=O)OCC(=O)NCc1ccccc1
[8]
  K: 0.134 M⁻¹ s⁻¹
